Several values for one entry are separate records, joined by “and”; a condition that tells them apart may be missing. Identical values can stand only once. Like-named read-outs stand apart in the source and are kept apart here.
Experiments:
[1] = Pharmacokinetics following oral administration in the rat; type: in vivo; conditions: 3 mg/kg; for Fold over IC50 at 24 h: mean blood concentration at 24 h (rat, 3 mg/kg p.o.) divided by whole blood IC50 in ng/ml
Protocol: Investigation of Pharmacokinetics of Compounds of General Formula (I) Following Oral Administration in the Rat
Rats were weighed on the day of dosing.
The test material was prepared as a 0.3 mg/mL suspension in 1% carboxy-methyl-cellulose (CMC).
Three groups of 3 rats were dosed as follows:
Doses were administered as a single oral dose using a gavage tube at a constant dose volume of 10 mL/kg.
At each sampling time point blood samples (approximately 0.3 mL) was taken from a catheter inserted into a lateral tail vein prior to the start of the experiment. The final blood sample (approximately 2 mL) from each animal was taken by cardiac puncture under isoflurane anaesthesia following which the animal was killed by exsanguination. Blood samples were taken into individual heparinised containers. Blood samples were collected at the following times post-dose:
Following collection, the blood samples were centrifuged (approximately 10,000×g, 2 min at 4° C.) and the plasma stored as one aliquot at approximately −20° C. pending analysis of drug concentrations by LC-MS/MS.
The plasma samples were analysed for test material concentrations at BioDynamics using an LC-MS/MS method developed at BioDynamics.

[2] = test system: DK-PGD2-induced blood eosinophilia; assay: Inhibition of DK-PGD2-induced blood eosinophilia in rats; type: in vivo, rat; conditions: female rats, oral dosing 30 min before 10 μg DK-PGD2 intracardiac; ED50 from dose-response curve; the values are: ED50
Protocol: Evaluation of Compounds of General Formula (I) as Inhibitors of 13,14-dihydro-15-keto prostaglandin D2 (DK-PGD2)-Induced Blood Eosinophilia in Rats
The test compound was dissolved in DMSO and diluted with water to give a final dosing volume of 2 ml/kg.
Female rats (175-250 g; UH colony) were dosed orally with test compound (or vehicle).
30 min after dosing all animals were anaesthetised with isoflurane.
Following induction of anaesthesia, animals receive an intracardiac injection of 10 μg DK-PGD2 in 0.3 ml heparinised (10 U/ml) saline. Control animals received an injection of 0.3 ml heparinised saline.
60 min after the intracardiac injection, animals were injected with an overdose of pentobarbitone sodium and a blood sample was taken (into heparin) by cardiac puncture while the rat was anaesthetised but not dead.
An aliquot of blood (100 μl) was added to Turk's solution and the total leukocyte count determined with a haemocytometer.
A further aliquot of blood (500 μl) was mixed with an equal volume of 4% Dextran (mw 500,000) and the erythrocytes allowed to settle. A cytospin preparation was made from the resulting leukocyte rich fraction.
Cytospin preparations were fixed with methanol (5 min) and stained with May-Grunwald (5 min) and Giemsa (15 min) stains. Finally cytospins were washed in phosphate buffer (pH6.8) and air dried.
Differential leukocyte counts were obtained from the cytospin preparations.
Blood eosinophil numbers were determined from the total leukocyte count and the percentage eosinophils (differential count).
Because it was impractical to generate sufficient data in any given experiment, data were obtained over a number of replicate experiments. Data from these replicate experiments were pooled, to provide at least 5 animals in each group and a dose-response curve fitted following a significance test (Mann Whitney) to determine whether or not DK-PGD2 caused a significant increase in blood eosinophils (GraphPad, Prism). A difference between groups was taken to be significant when P<0.05. ED50 values were calculated from the dose-response curve.

[3] = test system: PGD2 induced eosinophil shape change; assay: Human whole blood eosinophil shape change assay; type: cell-based; conditions: Homo sapiens, Eosinophil
Protocol: Human Whole Blood Eosinophil Shape Change Assay
Compounds 1 to 3 were assayed for their effect on PGD2 induced eosinophil shape change and were compared with Comparator Compounds A to G.
Shape Change Assay in Whole Blood
Compounds (1 μl, 200× final concentration) were added directly to 200 μl whole blood, mixed well and incubated for 15 min, 37° C., 5% CO2. After this time, cell shape was fixed by addition of 300 μl Cytofix™ buffer (BD Biosciences), 15 min on ice. 10 ml RBC lysis buffer was added to the fixed cells, incubated 5 min, at room temperature and centrifuged, 300×g for 5 min. Supernatant (containing lysed red cells) was removed and the lysis step was repeated. Leukocytes were resuspended in 250 μl RPMI/10% FCS and shape change analysed by FACS. Eosinophils were gated out based on their autofluorescence and 2000 eosinophil events were counted per sample. Data were analysed in triplicate.

[4] = rat, 3 mg/kg p.o, individual male animals

Q: Which results are given for `Cc1c(Cc2ccc3ccccc3n2)c2cc(F)ccc2n1CC(=O)O` [Compound A, (5-Fluoro-2-methyl-3-quinolin-2-ylmethyl-indol-1-yl)-acetic acid, reference compound]?
A: concentration at 0.25 h ([1]; male, rat, plasma, po, rat, 3 mg/kg oral, 0.25 h, mean, read-out: Concentration in Blood, Mean): 120 ng/mL; concentration at 0.5 h ([1]; male, rat, plasma, po, rat, 3 mg/kg oral, 0.5 h, individual male animals, read-out: Concentration in Blood): 426 ng/mL; concentration at 0.5 h ([1]; male, rat, plasma, po, rat, 3 mg/kg oral, 0.5 h, mean, read-out: Concentration in Blood, Mean): 357 ng/mL; concentration at 1 h ([1]; male, rat, plasma, po, rat, 3 mg/kg oral, 1 h, individual male animals, read-out: Concentration in Blood): 875 ng/mL; concentration at 1 h ([1]; male, rat, plasma, po, rat, 3 mg/kg oral, 1 h, mean, read-out: Concentration in Blood, Mean): 779 ng/mL; concentration at 2 h ([1]; male, rat, plasma, po, rat, 3 mg/kg oral, 2 h, individual male animals, read-out: Concentration in Blood): 1420 ng/mL; concentration at 2 h ([1]; male, rat, plasma, po, rat, 3 mg/kg oral, 2 h, mean, read-out: Concentration in Blood, Mean): 1250 ng/mL; concentration at 4 h ([1]; male, rat, plasma, po, rat, 3 mg/kg oral, 4 h, individual male animals, read-out: Concentration in Blood): 923 ng/mL; concentration at 4 h ([1]; male, rat, plasma, po, rat, 3 mg/kg oral, 4 h, mean, read-out: Concentration in Blood, Mean): 857 ng/mL; concentration at 6 h ([1]; male, rat, plasma, po, rat, 3 mg/kg oral, 6 h, individual male animals, read-out: Concentration in Blood): 404 ng/mL; concentration at 6 h ([1]; male, rat, plasma, po, rat, 3 mg/kg oral, 6 h, mean, read-out: Concentration in Blood, Mean): 451 ng/mL; concentration at 8 h ([1]; male, rat, plasma, po, rat, 3 mg/kg oral, 8 h, mean, read-out: Concentration in Blood, Mean): 354 ng/mL; concentration at 24 h ([1]; male, rat, plasma, po, rat, 3 mg/kg oral, 24 h, mean, read-out: Concentration in Blood, Mean): 43.7 ng/mL; AUC(0-inf) ([1]; male, rat, plasma, po, rat, 3 mg/kg p.o, individual male animals, read-out: AUCinf): 8570 ng·h/mL; Cmax ([1]; male, rat, plasma, po, rat, 3 mg/kg p.o, individual male animals, read-out: Cmax): 1420 ng/mL; Tmax ([1]; male, rat, plasma, po, rat, 3 mg/kg p.o, individual male animals, read-out: Tmax): 2 h; AUC(0-inf) ([1]; male, rat, plasma, po, rat, 3 mg/kg p.o, mean, summary without unit (Table 12), read-out: AUCinf (mean)): 8160 ng·h/mL; Cmax ([1]; male, rat, plasma, po, rat, 3 mg/kg p.o, mean, summary without unit (Table 12), read-out: Cmax (mean)): 1250 ng/mL; AUC(0-inf) ([1]; male, rat, plasma, po, rat, 3 mg/kg p.o, mean, read-out: AUCinf, Mean): 8160 ng·h/mL; Cmax ([1]; male, rat, plasma, po, rat, 3 mg/kg p.o, mean, read-out: Cmax, Mean): 1250 ng/mL; Tmax ([1]; male, rat, plasma, po, rat, 3 mg/kg p.o, mean, read-out: Tmax, Mean): 2 h; half-life ([1]; male, rat, plasma, po, rat, 3 mg/kg p.o, mean, read-out: T½, Mean (converted)): 4.8 h; Fold over IC50 at 24 h [1]: 1.2; Fold over IC50 at 24 h ([1]; listed as Compound (A)): ca. 1.2; Concentration in Blood ([1]; rat, 3 mg/kg oral, 0.25 h, individual male animals): 139.1 ng/mL and 153.9 ng/mL and 68.3 ng/mL; Concentration in Blood ([1]; rat, 3 mg/kg oral, 0.5 h, individual male animals): 388.4 ng/mL and 256.3 ng/mL; Concentration in Blood ([1]; rat, 3 mg/kg oral, 1 h, individual male animals): 923.2 ng/mL and 538.8 ng/mL; Concentration in Blood ([1]; rat, 3 mg/kg oral, 2 h, individual male animals): 1309.0 ng/mL and 1013.6 ng/mL; Concentration in Blood ([1]; rat, 3 mg/kg oral, 4 h, individual male animals): 820.5 ng/mL and 827.0 ng/mL; Concentration in Blood ([1]; rat, 3 mg/kg oral, 6 h, individual male animals): 514.8 ng/mL and 432.6 ng/mL; Concentration in Blood ([1]; rat, 3 mg/kg oral, 8 h, individual male animals): 305.6 ng/mL and 521.9 ng/mL and 235.5 ng/mL; Concentration in Blood ([1]; rat, 3 mg/kg oral, 24 h, individual male animals): 51.8 ng/mL and 79.2 ng/mL and 0.0 ng/mL; AUCinf [1, 4]: 10429.2 ng·h/mL and 5473.9 ng·h/mL; Cmax [1, 4]: 1309.0 ng/mL and 1013.6 ng/mL; T½ [1, 4]: 6.1 hours (2×) and 2.2 hours; Cmax (mean) ([1]; rat, 3 mg/kg p.o, mean, summary without unit (Table 12), in ng/mL): 1246; AUCinf (mean) ([1]; rat, 3 mg/kg p.o, mean, summary without unit (Table 12), in ng·h/mL): 8158; Potency in inhibition of DK-PGD2-induced blood eosinophilia [2]: 37 mg/kg; IC50 ([3]; 10 nm PGD2-induced eosinophil shape change, human whole blood, read-out: Whole Blood IC50): 103 nM; IC50 ([3]; Table 12 summary of whole blood eosinophil shape change IC50, read-out: IC50 (μmol)): 103 nM; IC50 ([3]; whole blood eosinophil shape change IC50 converted to ng/mL, read-out: IC50): 0.0358 µg/mL
